pIC50: −log10 of the molar value.

One assay concerns the target T1, CDK1:Cyclin-B (Homo sapiens, UniProt P06493).
T1 construct: purchased New England Biolabs, Beverly, Mass; 6020; host or cells: insect cells
The experiment in a line: CDK1 Screening Assay. The class given is biochemical.

Assay [1] concerns the target T2, rat VEGF-R2 kinase domain (Rattus norvegicus, UniProt O08775).
T2 construct: amino acids 786-1343 of the rat VEGF-R2 kinase domain; polyhistidine (N)
The experiment in a line: VEGF-R2 Screening Assay. The class given is biochemical. Conditions: > means no observed 50% inhibition at the indicated test concentration; ~ means approximately 50% inhibition at that concentration; read-out: IC50 VEGF-R2.

The target of a further assay is T3, murine Aurora-A (Mus musculus, UniProt P97477).
T3 construct: replaced with the full length protein encoding the murine Aurora-A; made in house; host or cells: sf9 insect cells
T3 sequence (P97477 1-395): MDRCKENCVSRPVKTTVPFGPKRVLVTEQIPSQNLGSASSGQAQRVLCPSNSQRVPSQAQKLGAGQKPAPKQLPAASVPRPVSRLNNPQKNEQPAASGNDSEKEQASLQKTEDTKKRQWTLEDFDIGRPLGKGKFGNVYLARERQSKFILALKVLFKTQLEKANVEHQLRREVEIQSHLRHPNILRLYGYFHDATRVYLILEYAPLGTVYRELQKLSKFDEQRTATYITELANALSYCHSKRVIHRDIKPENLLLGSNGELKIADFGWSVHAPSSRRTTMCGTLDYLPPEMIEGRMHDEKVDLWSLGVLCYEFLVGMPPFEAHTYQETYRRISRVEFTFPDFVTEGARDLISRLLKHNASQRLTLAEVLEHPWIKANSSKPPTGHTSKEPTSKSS
In words: Aurora-A Screening Assay. The class given is biochemical.

The target of the next assay is T4, HER2 cytoplasmic domain (Homo sapiens, UniProt P04626).
T4 construct: polyhistidine (N)
T4 sequence (P04626 676-1255 limits assumed): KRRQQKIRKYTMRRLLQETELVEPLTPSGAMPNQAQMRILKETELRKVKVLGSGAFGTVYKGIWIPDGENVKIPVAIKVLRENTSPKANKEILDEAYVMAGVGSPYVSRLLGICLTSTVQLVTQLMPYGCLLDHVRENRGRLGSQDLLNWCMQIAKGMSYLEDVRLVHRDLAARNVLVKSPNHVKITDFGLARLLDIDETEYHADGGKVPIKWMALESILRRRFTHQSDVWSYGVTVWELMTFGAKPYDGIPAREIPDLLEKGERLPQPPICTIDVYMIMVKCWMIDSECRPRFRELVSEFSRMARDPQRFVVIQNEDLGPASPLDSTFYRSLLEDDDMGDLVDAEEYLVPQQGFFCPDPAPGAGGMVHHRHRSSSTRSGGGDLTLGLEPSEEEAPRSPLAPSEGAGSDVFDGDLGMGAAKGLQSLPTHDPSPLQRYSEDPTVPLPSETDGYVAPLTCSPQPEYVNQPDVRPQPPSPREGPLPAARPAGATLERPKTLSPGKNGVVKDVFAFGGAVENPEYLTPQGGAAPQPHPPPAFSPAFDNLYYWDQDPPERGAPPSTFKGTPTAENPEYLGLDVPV
In words: HER2 Kinase Screening Assay. Conditions: > means no observed 50% inhibition at the indicated test concentration; ~ means approximately 50% inhibition at that concentration. The class given is biochemical.

For the next assay, the target named is T5, RET cytoplasmic domain (Homo sapiens, UniProt P07949).
T5 construct: the RET cytoplasmic domain consisting of the last 492 amino acids of the intracellular domain; histidine tag (N); made in house; host or cells: Hi5 insect cells
T5 sequence (P07949 658-1114 limits assumed): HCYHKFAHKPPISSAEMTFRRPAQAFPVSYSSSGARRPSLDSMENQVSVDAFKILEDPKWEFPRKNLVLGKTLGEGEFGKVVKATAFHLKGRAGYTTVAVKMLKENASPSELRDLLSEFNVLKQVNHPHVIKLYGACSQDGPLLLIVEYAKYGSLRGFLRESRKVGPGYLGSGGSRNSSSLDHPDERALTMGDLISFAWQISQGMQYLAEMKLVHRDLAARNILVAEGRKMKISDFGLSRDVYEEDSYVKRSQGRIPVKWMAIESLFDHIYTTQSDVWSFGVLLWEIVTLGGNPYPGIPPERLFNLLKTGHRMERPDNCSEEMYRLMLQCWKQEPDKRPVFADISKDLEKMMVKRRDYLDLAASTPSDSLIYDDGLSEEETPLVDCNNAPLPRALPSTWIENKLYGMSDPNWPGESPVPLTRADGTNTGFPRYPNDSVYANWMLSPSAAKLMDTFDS
The experiment in a line: RET Kinase Screening Assay. The class given is biochemical.

For assay [2], the system named is HeLa cervical adenocarcinoma. In words: Inhibition of in vitro cell proliferation (HeLa).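 Note: cells exposed to compound for 24 h, then labelled 24 h with methyl 14C-thymidine, with uptake into DNA counted by scintillation against DMSO-only control wells.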 The class given is cell-based, human. Conditions: Homo sapiens, 14C-thymidine incorporation. Background: Dividing cells build labelled thymidine or BrdU into new DNA.
In the next assay the test system is HCT-116 colon carcinoma. The experiment in a line: Inhibition of in vitro cell proliferation (HCT116).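 Note: cells exposed to compound for 24 h, then 14C-thymidine added for a further 24 h and its uptake into DNA counted by scintillation, DMSO-only wells as control.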 The class given is cell-based, human. Conditions: Homo sapiens, HCT-116, 14C-thymidine incorporation.
The test system of another assay is A375 malignant melanoma. In words: Inhibition of in vitro cell proliferation (A375).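 Note: cells plated for 24 h, given compound for 24 h, then labelled with 14C-thymidine for another 24 h, with DMSO-only wells as control and counts read by scintillation.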 The class given is cell-based, human. Conditions: Homo sapiens, A-375, 14C-thymidine incorporation.

T1 sequence (P06493 whole entry): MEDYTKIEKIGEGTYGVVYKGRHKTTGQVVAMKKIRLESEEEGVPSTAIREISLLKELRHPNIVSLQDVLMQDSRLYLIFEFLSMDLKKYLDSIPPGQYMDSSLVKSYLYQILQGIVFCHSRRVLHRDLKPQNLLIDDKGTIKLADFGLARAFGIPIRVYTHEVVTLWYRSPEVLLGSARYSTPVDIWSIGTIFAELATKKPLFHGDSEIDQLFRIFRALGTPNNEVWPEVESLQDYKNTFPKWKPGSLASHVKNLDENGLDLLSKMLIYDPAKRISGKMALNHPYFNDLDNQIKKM
T1 sequence (P14635 whole entry partner): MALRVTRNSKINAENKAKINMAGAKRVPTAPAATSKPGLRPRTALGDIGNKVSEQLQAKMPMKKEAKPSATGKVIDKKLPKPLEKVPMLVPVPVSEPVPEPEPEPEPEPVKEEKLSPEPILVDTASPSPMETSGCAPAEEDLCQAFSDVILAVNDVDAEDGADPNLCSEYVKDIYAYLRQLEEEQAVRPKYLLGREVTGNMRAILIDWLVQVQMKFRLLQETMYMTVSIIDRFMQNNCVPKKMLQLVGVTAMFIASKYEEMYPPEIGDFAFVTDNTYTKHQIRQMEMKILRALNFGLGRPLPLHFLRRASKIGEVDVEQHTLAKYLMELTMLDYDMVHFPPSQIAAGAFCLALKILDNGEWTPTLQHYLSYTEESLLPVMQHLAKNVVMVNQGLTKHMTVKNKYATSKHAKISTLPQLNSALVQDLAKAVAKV
T2 sequence (O08775 786-1343): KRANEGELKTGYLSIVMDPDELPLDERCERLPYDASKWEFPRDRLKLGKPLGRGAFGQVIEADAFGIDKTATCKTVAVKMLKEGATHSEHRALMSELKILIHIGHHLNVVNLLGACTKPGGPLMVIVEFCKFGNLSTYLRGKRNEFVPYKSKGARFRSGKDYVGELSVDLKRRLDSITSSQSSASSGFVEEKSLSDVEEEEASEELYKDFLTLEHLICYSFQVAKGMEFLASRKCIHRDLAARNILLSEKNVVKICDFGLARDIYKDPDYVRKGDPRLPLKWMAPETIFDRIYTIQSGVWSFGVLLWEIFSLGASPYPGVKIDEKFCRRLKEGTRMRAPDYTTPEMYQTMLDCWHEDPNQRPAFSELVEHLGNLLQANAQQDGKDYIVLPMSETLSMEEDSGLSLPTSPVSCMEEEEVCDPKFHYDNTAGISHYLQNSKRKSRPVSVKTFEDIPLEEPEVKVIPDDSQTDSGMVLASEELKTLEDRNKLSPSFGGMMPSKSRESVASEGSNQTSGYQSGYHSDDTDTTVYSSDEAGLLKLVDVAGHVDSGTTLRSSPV

Take `CNC(=O)n1c(C)cc2cc(Oc3ncnc(N)c3C=NOC)ccc21` [Cpd 49, 5-[6-amino-5-(methoxyimino-methyl)-pyrimidin-4-yloxy]-2-methyl-indole-1-carboxylic acid methylamide]: the pIC50 (commonly the IC50 on a negative log10 scale, so that one unit is a factor of ten) against CDK1:Cyclin-B was below 4.00; in assay [1], 9.00; against murine Aurora-A it was below 4.00; against HER2 cytoplasmic domain, around 4.00; at RET cytoplasmic domain, around 5.00. In addition, the figures for the IC50 (in assay [2]; with HCT-116 colon carcinoma; in the assay with A375 malignant melanoma) were 2.98 µM, 3.14 µM and 1.39 µM, respectively.

Regarding `CNC(=O)Nc1ccc(Oc2ncnc(N)c2C=NOC)cc1Cl` [Cpd 51, 1-{4-[6-amino-5-(methoxyimino-methyl)-pyrimidin-4-yloxy]-2-chloro-phenyl}-3-methyl-urea], the pIC50 against CDK1:Cyclin-B was below 4.00; in assay [1], 7.60; on murine Aurora-A it was below 4.00; at HER2 cytoplasmic domain, below 4.00; against RET cytoplasmic domain, around 6.00. The IC50 (usually the concentration that gives 50% inhibition) in assay [2] is 3.75 µM; with HCT-116 colon carcinoma, 4.21 µM; with A375 malignant melanoma, 4.09 µM.

Consider `Cc1cc2c(F)c(Oc3ncnc(N)c3/C=N/O)ccc2[nH]1` [Cpd 27, 4-amino-6-(4-fluoro-2-methyl-1H-indol-5-yloxy)-pyrimidine-5-carbaldehyde oxime], for which the pIC50 at CDK1:Cyclin-B was below 4.00; in assay [1] it was 7.48; against murine Aurora-A, around 5.00; against HER2 cytoplasmic domain it was around 5.00; at RET cytoplasmic domain, below 5.00. Further, the IC50 in assay [2] came out at 0.472 µM; with HCT-116 colon carcinoma, 1.14 µM; in the assay on A375 malignant melanoma, 0.492 µM.

On to `CCNC(=O)Nc1ccc(Oc2ncnc(N)c2C=NOC)cc1` [Cpd 69, 1-{4-[6-amino-5-(methoxyimino-methyl)-pyrimidin-4-yloxy]-phenyl}-3-ethyl-urea], for which the pIC50 against CDK1:Cyclin-B is below 4.00; in assay [1], 6.85; against murine Aurora-A it was below 5.00; against HER2 cytoplasmic domain, below 4.00; on RET cytoplasmic domain, below 5.00. In addition, the IC50 (in assay [2]; in the assay with HCT-116 colon carcinoma; with A375 malignant melanoma) was above 10 µM throughout.

`Cc1cc2c(F)c(Oc3ncnc(N)c3C=NOCCCN3CCN(S(C)(=O)=O)CC3)ccc2[nH]1` [Cpd 22, 4-amino-6-(4-fluoro-2-methyl-1H-indol-5-yloxy)-pyrimidine-5-carbaldehyde O-[3-(4-methanesulfonyl-piperazin-1-yl)-propyl]-oxime]: the pIC50 against CDK1:Cyclin-B was below 4.00; in assay [1] it was 7.35; on murine Aurora-A it was below 4.00; against HER2 cytoplasmic domain it was 5.85; against RET cytoplasmic domain, 5.56. Moreover, the IC50 (in assay [2]; with HCT-116 colon carcinoma; in the assay with A375 malignant melanoma) was above 10 µM each time.

In the case of `CC(=O)N1CCN(CCCON=Cc2c(N)ncnc2Oc2ccc3[nH]c(C)cc3c2F)CC1` [Cpd 23, 4-amino-6-(4-fluoro-2-methyl-1H-indol-5-yloxy)-pyrimidine-5-carbaldehyde O-[3-(4-acetyl-piperazin-1-yl)-propyl]-oxime], the pIC50 on CDK1:Cyclin-B was below 4.00; in assay [1], 7.09; at murine Aurora-A, below 4.00; against HER2 cytoplasmic domain, 5.75; against RET cytoplasmic domain it was 5.08. Also, the IC50 (in assay [2]; in the assay with HCT-116 colon carcinoma; in the assay on A375 malignant melanoma) was above 10 µM each time.

As to `Cc1cc2c(F)c(Oc3ncnc(N)c3C=NOCCCN3CCOCC3)ccc2[nH]1` [Cpd 19, 4-amino-6-(4-fluoro-2-methyl-1H-indol-5-yloxy)-pyrimidine-5-carbaldehyde O-(3-morpholin-4-yl-propyl)-oxime], the pIC50 is below 4.00 against CDK1:Cyclin-B; around 7.00 in assay [1]; below 4.00 on murine Aurora-A; 5.91 against HER2 cytoplasmic domain; 5.45 on RET cytoplasmic domain. Also, the IC50 in assay [2] turned out to be 4.91 µM; in the assay with HCT-116 colon carcinoma, 9.24 µM; with A375 malignant melanoma, 3.82 µM.

Consider `CNc1ncnc(Oc2ccc3[nH]ccc3c2)c1C=NOC` [Cpd 3, 4-(1H-indol-5-yloxy)-6-methylamino-pyrimidine-5-carbaldehyde O-methyl-oxime], for which the pIC50 (on CDK1:Cyclin-B; in assay [1]; against murine Aurora-A; against HER2 cytoplasmic domain; on RET cytoplasmic domain) was below 4.00 in each case. In addition, the 50% inhibitory concentration (IC50) (in assay [2]; with HCT-116 colon carcinoma; in the assay with A375 malignant melanoma) was above 10 µM each time.

Turning to `Cc1cc2c(F)c(Oc3ncnc(N)c3C=NOCCCN3CCCC3)ccc2[nH]1` [Cpd 18, 4-amino-6-(4-fluoro-2-methyl-1H-indol-5-yloxy)-pyrimidine-5-carbaldehyde O-(3-pyrrolidin-1-yl-propyl)-oxime], the pIC50 against CDK1:Cyclin-B is below 4.00; in assay [1], 7.19; against murine Aurora-A, below 5.00; against HER2 cytoplasmic domain, 5.83; at RET cytoplasmic domain, 5.09. Also, the figures for the half-inhibitory concentration (IC50) (in assay [2]; in the assay on HCT-116 colon carcinoma; with A375 malignant melanoma) were 4.18 µM, 4.5 µM and 2.61 µM, respectively.

Consider `CON=Cc1c(N)ncnc1Oc1ccc2c(c1)cc(C)n2C(=O)NCCN(C)C` [Cpd 41, 5-[6-amino-5-(methoxyimino-methyl)-pyrimidin-4-yloxy]-2-methyl-indole-1-carboxylic acid (2-dimethylamino-ethyl)-amide], for which the pIC50 against CDK1:Cyclin-B is below 4.00; in assay [1] it was 7.37; against HER2 cytoplasmic domain, below 5.00; against RET cytoplasmic domain, below 5.00. In addition, the results for the IC50 (in assay [2]; with HCT-116 colon carcinoma; in the assay on A375 malignant melanoma) were above 10 µM, above 10 µM and above 1 µM, respectively.

For the molecule `CNC(=O)Nc1ccc(Oc2ncnc(N)c2C=NOC)cc1` [Cpd 68, 1-{4-[6-amino-5-(methoxyimino-methyl)-pyrimidin-4-yloxy]-phenyl}-3-methyl-urea], the pIC50 is below 4.00 against CDK1:Cyclin-B; 6.63 in assay [1]; below 5.00 against murine Aurora-A; below 4.00 against HER2 cytoplasmic domain; below 5.00 at RET cytoplasmic domain. Further, the IC50 (in assay [2]; in the assay with HCT-116 colon carcinoma; in the assay on A375 malignant melanoma) was above 10 µM in each case.

For the molecule `Cc1cc2c(F)c(Oc3ncnc(N)c3C=NOCC3CCCCC3)ccc2[nH]1` [Cpd 35, 4-amino-6-(4-fluoro-2-methyl-1H-indol-5-yloxy)-pyrimidine-5-carbaldehyde O-cyclohexylmethyl-oxime], the pIC50 at CDK1:Cyclin-B, at murine Aurora-A, against HER2 cytoplasmic domain and against RET cytoplasmic domain was below 4.00 in each case. Moreover, the IC50 amounted to 22.7 µM in assay [2], 16.1 µM with HCT-116 colon carcinoma and 4.92 µM with A375 malignant melanoma.

In the case of `CO/N=C/c1c(N)ncnc1Oc1ccc2[nH]ccc2c1` [Cpd 10, 4-amino-6-(1H-indol-5-yloxy)-pyrimidine-5-carbaldehyde O-methyl-oxime], the pIC50 is below 4.00 on CDK1:Cyclin-B, below 5.00 at murine Aurora-A, 6.16 against HER2 cytoplasmic domain and 5.65 against RET cytoplasmic domain. Also, the IC50 amounted to 1.87 µM in assay [2], 3.52 µM with HCT-116 colon carcinoma and 0.783 µM with A375 malignant melanoma.

On to `CCON=Cc1c(N)ncnc1Oc1ccc2[nH]c(C)cc2c1F` [Cpd 1, 4-amino-6-(4-fluoro-2-methyl-1H-indol-5-yloxy)-pyrimidine-5-carbaldehyde O-ethyl-oxime], for which the pIC50 against CDK1:Cyclin-B, at murine Aurora-A, against HER2 cytoplasmic domain and on RET cytoplasmic domain was below 4.00 each time. Besides, the IC50 was 0.032 µM in assay [2], 0.036 µM with HCT-116 colon carcinoma and 0.027 µM in the assay with A375 malignant melanoma.

For the origin of these results see patent publication US8013153B2, “Substituted pyrimidine kinase inhibitors” (Janssen Pharmaceutica, N.V., priority 2006, dated 2011).
